Drawing on paper PMC8741243 (Journal of Enzyme Inhibition and Medicinal Chemistry, 2022), this text covers Ki for 13 compounds.

Each structure is given as a SMILES string. Like-named read-outs stand apart in the source and are kept apart here.

Holding throughout (experiment): stopped-flow CO2 hydration
Holding throughout (type): biochemical

The target in one assay is T1, NgCAα (Neisseria gonorrhoeae, UniProt Q50940).
T1 construct: gene cah; recombinant, obtained in-house as described earlier
T1 sequence (Q50940 27-252): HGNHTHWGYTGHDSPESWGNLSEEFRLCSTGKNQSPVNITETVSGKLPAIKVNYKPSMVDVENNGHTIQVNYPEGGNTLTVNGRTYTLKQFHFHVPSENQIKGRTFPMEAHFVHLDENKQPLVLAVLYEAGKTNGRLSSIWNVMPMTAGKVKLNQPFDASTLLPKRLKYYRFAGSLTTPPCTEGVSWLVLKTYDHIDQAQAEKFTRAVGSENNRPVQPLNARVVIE

Another assay addresses T2, hCA II (Homo sapiens, UniProt P00918).
T2 construct: gene CA2; recombinant, obtained in-house as described earlier

For another assay, the target named is T3, VchCAα (Vibrio cholerae, UniProt Q9KMP6).
T3 construct: gene VC_A0274
T3 sequence (Q9KMP6 21-239 limits assumed): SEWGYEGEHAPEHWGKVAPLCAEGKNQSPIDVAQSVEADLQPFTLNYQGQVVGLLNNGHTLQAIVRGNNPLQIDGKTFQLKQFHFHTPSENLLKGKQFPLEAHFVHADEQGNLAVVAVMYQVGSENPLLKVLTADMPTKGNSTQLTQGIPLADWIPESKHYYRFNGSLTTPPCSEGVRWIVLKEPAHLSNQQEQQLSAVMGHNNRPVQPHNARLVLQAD
Conditions: read-out: Ki (μM)^a / VchCAα; […] h preincubation at […] °C; […] HEPES pH […] NaClO4; prodrug, lactone hydrolysed by CA esterase activity.

In another assay the target is T4, hCA I (Homo sapiens, UniProt P00915).
T4 construct: gene CA1; recombinant, obtained in-house as described earlier
T4 sequence (P00915 2-261): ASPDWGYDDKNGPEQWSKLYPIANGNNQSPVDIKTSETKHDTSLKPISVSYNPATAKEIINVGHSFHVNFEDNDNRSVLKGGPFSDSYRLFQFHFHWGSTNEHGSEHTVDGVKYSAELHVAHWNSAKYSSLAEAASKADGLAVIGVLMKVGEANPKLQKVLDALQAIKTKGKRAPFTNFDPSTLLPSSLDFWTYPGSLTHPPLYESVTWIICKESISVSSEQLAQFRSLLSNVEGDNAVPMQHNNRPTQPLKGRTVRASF

Consider `O=c1cc(O)c2ccccc2o1` [compound 4, 4], for which the Ki on NgCAα turned out to be 94.7 µM; at hCA II it was 513 µM; at VchCAα, 92.2 µM; on hCA I, 394 µM.

As for `CC(=O)c1cc2ccc(O)cc2oc1=O` [compound 14, 14], the Ki at NgCAα (read-out: Ki (μM)^a / NgCAα) worked out at 395 µM; at hCA II (read-out: Ki (μM)^a / hCA II) it was 786 µM; at VchCAα it was 303 µM; on hCA I (read-out: Ki (μM)^a / hCA I), 470 µM.

As to `CCOC(=O)c1cc2ccc(O)cc2oc1=O` [compound 13, 13], the Ki is 395 µM at NgCAα (read-out: Ki (μM)^a / NgCAα), 961 µM at hCA II (read-out: Ki (μM)^a / hCA II), 432 µM at VchCAα and 900 µM at hCA I (read-out: Ki (μM)^a / hCA I).

`O=c1ccc2ccc(O)cc2o1` [compound 3, 3]: the Ki at NgCAα (read-out: Ki (μM)^a / NgCAα) came out at 77.1 µM; at VchCAα, 68.5 µM.

For `CCN(CC)c1ccc2c(C)cc(=O)oc2c1` [compound 8, 4-methyl-7-diethylamino-coumarin], the Ki is 28.6 µM at NgCAα (read-out: Ki (μM)^a / NgCAα), 559 µM on hCA II (read-out: Ki (μM)^a / hCA II), 53.9 µM at VchCAα and 517 µM at hCA I (read-out: Ki (μM)^a / hCA I).

For `O=c1cc(O)c2ccc(O)cc2o1` [compound 12, 12], the Ki at NgCAα (read-out: Ki (μM)^a / NgCAα) was 77.6 µM; at hCA II (read-out: Ki (μM)^a / hCA II), 758 µM; on VchCAα, 66 µM; at hCA I (read-out: Ki (μM)^a / hCA I) it was 182 µM.

`O=c1oc2ccccc2cc1O` [compound 5, 5]: the Ki at NgCAα (read-out: Ki (μM)^a / NgCAα) was determined as 110 µM; at hCA II (read-out: Ki (μM)^a / hCA II) it was 625 µM; on VchCAα, 290 µM; on hCA I (read-out: Ki (μM)^a / hCA I), 490 µM.

As for `Nc1ccc2c(C(F)(F)F)cc(=O)oc2c1` [compound 7, 7], the Ki at NgCAα (read-out: Ki (μM)^a / NgCAα) was determined as 97.1 µM; at hCA II (read-out: Ki (μM)^a / hCA II), 733 µM; at VchCAα it was 95 µM; on hCA I (read-out: Ki (μM)^a / hCA I) it was 940 µM.

For `CCOC(=O)Cc1cc(=O)oc2cc(O)ccc12` [compound 11, 11], the Ki is 469 µM at NgCAα (read-out: Ki (μM)^a / NgCAα), 876 µM at hCA II (read-out: Ki (μM)^a / hCA II), 439 µM on VchCAα and 749 µM on hCA I (read-out: Ki (μM)^a / hCA I).

As to `CC(=O)c1c(O)ccc2ccc(=O)oc12` [compound 9, 7-hydroxy-8-acetyl-coumarin], the Ki on NgCAα (read-out: Ki (μM)^a / NgCAα) amounted to 42.5 µM; on hCA II (read-out: Ki (μM)^a / hCA II) it was 646 µM; at VchCAα it was 39.8 µM; on hCA I (read-out: Ki (μM)^a / hCA I) it was 949 µM.

Turning to `O=c1ccc2cc(O)ccc2o1` [compound 2, 2], the Ki on NgCAα (read-out: Ki (μM)^a / NgCAα) was 92.4 µM; on hCA II (read-out: Ki (μM)^a / hCA II), 683 µM; on VchCAα, 77.5 µM; on hCA I (read-out: Ki (μM)^a / hCA I), 192 µM.

Turning to `O=c1ccc2ccccc2o1` [compound 1, simple unsubstituted coumarin 1], the Ki on NgCAα (read-out: Ki (μM)^a / NgCAα) came to 81.6 µM; at VchCAα, 94.7 µM.

With `Cc1cc2ccc(O)cc2oc1=O` [compound 10, 10], the Ki at NgCAα (read-out: Ki (μM)^a / NgCAα) stood at 68 µM; at hCA II (read-out: Ki (μM)^a / hCA II) it was 297 µM; on VchCAα it was 66.8 µM; at hCA I (read-out: Ki (μM)^a / hCA I) it was 137 µM.
